According to PMC8910447 (International Journal of Molecular Sciences, 2022):
Read-outs that look alike come from different tables or passages of the source.

What was measured:
EBOVpp = assay: microbe, parasite or virus in culture; format: cell-based, Zaire ebolavirus
in vitro = conditions: human
EBOV-GP = EBOV-GP (Zaire ebolavirus, UniProt Q05320); assay: biochemical; format: binding, Ebola virus
[1] = tested on: pCMV C-His (negative control); format: binding
[2] = tested on: infectious recombinant EBOV; conditions: read-out: IC50 against infectious recombinant EBOV infection; cited from earlier work
[3] = Zaire ebolavirus, A549, read-out: IC50 (M) against infection with EBOVpp
[4] = Zaire ebolavirus, A549, n = 3, read-out: EBOVpp IC50

Sequence of EBOV-GP (Q05320 33-676 limits assumed): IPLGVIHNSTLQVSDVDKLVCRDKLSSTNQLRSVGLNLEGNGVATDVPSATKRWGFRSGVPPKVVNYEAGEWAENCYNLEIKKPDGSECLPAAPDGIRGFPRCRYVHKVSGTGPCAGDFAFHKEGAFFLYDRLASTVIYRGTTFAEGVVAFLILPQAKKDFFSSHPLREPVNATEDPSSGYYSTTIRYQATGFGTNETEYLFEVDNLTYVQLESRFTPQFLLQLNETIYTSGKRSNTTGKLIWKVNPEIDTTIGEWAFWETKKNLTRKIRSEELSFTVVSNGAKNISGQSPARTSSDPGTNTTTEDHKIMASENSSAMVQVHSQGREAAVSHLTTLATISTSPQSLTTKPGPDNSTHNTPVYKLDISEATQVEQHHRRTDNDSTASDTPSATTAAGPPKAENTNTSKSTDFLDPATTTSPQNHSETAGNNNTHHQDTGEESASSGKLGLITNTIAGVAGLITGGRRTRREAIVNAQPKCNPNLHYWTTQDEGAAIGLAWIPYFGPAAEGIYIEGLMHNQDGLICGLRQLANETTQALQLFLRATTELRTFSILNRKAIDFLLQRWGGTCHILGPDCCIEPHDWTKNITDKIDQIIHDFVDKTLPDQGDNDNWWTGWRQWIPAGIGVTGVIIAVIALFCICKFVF

| SMILES | inhibition at 10 µM (EBOVpp; Zaire ebolavirus, A549, read-out: inhibitory effect against EBOVpp infection) [%] | CC50 (in vitro) [µM] | IC50 (EBOVpp; [3]) [M] | IC50 (EBOVpp; [4]) [M] | Selectivity Index (SI) (EBOVpp) | Kd (EBOV-GP) [µM] | binding curve with the negative control [1] | IC50 [2] [µM] |
| --- | --- | --- | --- | --- | --- | --- | --- | --- |
| O=C(O[C@@H]1Cc2c(O)cc(O)cc2O[C@@H]1c1ccc(O)c(O)c1)c1ccccc1 [13b, (2R,3R)-2-(3,4-Dihydroxyphenyl)-5,7-dihydroxychroman-3-yl benzoate] | > 60 |  |  |  |  |  |  |  |
| Oc1cc(O)c2c(c1)O[C@H](c1ccc(O)c(O)c1)[C@@H](O)C2 [(+) Catechin (4), (+)-catechin] |  | > 34.5 | 3.6e-05 | 3.6e-05 |  |  |  |  |
| Oc1cc(O)c2c(c1)O[C@H](c1ccc(O)c(O)c1)[C@H](O)C2 [(−) Epicatechin (5), (−)-epicatechin] |  | > 172 | 2.21e-05 | 2.21e-05 | >7.79 |  |  |  |
| O=C(O[C@@H]1Cc2c(O)cc(O)cc2O[C@@H]1c1ccc(O)c(O)c1)c1cc(O)c(O)c(O)c1 [ECG (9), epicatechin 3-O-gallate] |  | > 22.6 | 2.95e-06 | 2.95e-06 | >7.68 |  |  |  |
| O=C(O[C@@H]1Cc2c(O)cc(O)cc2O[C@@H]1c1cc(O)c(O)c(O)c1)c1cc(O)c(O)c(O)c1 [EGCG (8), (−)-epigallocatechin-3-O-gallate] |  | > 21.8 | 2.8e-06 | 2.8e-06 | >7.81 |  |  |  |
| Oc1cc(O)c2c(c1)O[C@H](c1cc(O)c(O)c(O)c1)[C@H](O)C2 [Epigallocatechin (11), epigallocatechin] |  | > 163 | 5.53e-06 | 5.53e-06 | >29.5 |  |  |  |
| Oc1cc(O)c2c(c1)O[C@H](c1cc(O)c(O)c(O)c1)[C@@H](O)C2 [Gallocatechin (10), gallocatechin] |  | > 163 | 1.24e-05 | 1.24e-05 | >13.1 |  |  |  |
| Oc1cc(O)c2c(c1)O[C@H](c1ccc(O)c(O)c1)[C@H](O)[C@H]2c1c(O)cc(O)c2c1O[C@H](c1ccc(O)c(O)c1)[C@@H](O)C2 [Procyanidin B1 (6), Procyanidin B1] |  | > 86.5 | 9.13e-07 | 9.5e-07 | >91.1 |  |  |  |
| Oc1cc(O)c2c(c1)O[C@H](c1ccc(O)c(O)c1)[C@H](O)[C@H]2c1c(O)cc(O)c2c1O[C@H](c1ccc(O)c(O)c1)[C@H](O)C2 [Procyanidin B2 (1), procyanidin B2] |  | > 86.5 | 8.29e-07 | 8.3e-07 | >104 | 13 | could not produce a binding curve |  |
| Oc1cc(O)c2c(c1)O[C@H](c1ccc(O)c(O)c1)[C@@H](O)[C@@H]2c1c(O)cc(O)c2c1O[C@H](c1ccc(O)c(O)c1)[C@@H](O)C2 [Procyanidin B3 (7), Procyanidin B3] |  | > 86.5 |  | 1.52e-06 | >57.1 |  |  |  |
| Oc1cc(O)c2c(c1)O[C@H](c1ccc(O)c(O)c1)[C@H](O)[C@H]2c1c(O)cc(O)c2c1O[C@H](c1ccc(O)c(O)c1)[C@H](O)[C@H]2c1c(O)cc(O)c2c1O[C@H](c1ccc(O)c(O)c1)[C@H](O)C2 [Procyanidin C1 (2), procyanidin C1] |  | > 11.5 |  | > 1.15e-05 |  |  |  |  |
| Oc1cc(O)c2c(c1)OC(c1ccc(O)c(O)c1)C(O)C2c1c(O)cc(O)c2c1OC(c1ccc(O)c(O)c1)C(O)C2c1c(O)cc(O)c2c1OC(c1ccc(O)c(O)c1)C(O)C2c1c(O)cc(O)c2c1OC(c1ccc(O)c(O)c1)C(O)C2 (stereo not drawn) [Procyanidin tetramer (3), epicatechin-(4β→8)-epicatechin-(4β→8)-epicatechin-(4β→8)-epicatechin] |  | > 11.5 |  | > 1.15e-05 |  |  |  |  |
| CN(C)CCOc1ccc(/C(=C(/CCCl)c2ccccc2)c2ccccc2)cc1 [Toremifene, toremifene, reference compound] |  | 2.92 |  | 1.7e-07 |  |  | could not produce a binding curve |  |
| O=C(O)c1cc(O)c(O)c(O)c1 [gallic acid] |  |  |  |  |  |  |  | 25.4 |
